The test has as its target 6His-tagged human FADS isoform 2 (FADS2), WT (Homo sapiens, UniProt Q8NFF5). The experiment in a line: UV/Vis spectra. The class given is binding. The note with it: reaction product, non-covalent; bound flavin as purified.

Sequence of 6His-tagged human FADS isoform 2 (FADS2), WT (Q8NFF5 98-587): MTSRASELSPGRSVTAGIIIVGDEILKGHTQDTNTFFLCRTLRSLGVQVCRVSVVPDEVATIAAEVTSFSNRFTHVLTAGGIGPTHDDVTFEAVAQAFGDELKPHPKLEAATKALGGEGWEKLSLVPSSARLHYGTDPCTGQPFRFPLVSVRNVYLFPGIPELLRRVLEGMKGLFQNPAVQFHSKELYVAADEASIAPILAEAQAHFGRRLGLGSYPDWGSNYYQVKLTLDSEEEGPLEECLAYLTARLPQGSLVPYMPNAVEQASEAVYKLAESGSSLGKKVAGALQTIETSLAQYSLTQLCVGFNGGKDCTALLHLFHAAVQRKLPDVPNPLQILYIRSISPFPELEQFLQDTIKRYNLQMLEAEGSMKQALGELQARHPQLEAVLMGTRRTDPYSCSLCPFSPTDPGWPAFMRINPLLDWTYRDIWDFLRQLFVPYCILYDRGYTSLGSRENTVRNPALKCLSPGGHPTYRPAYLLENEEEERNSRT

Turning to `Cc1cc2nc3c(=O)[nH]c(=O)nc-3n(C[C@H](O)[C@H](O)[C@H](O)COP(=O)(O)OP(=O)(O)OC[C@H]3O[C@@H](n4cnc5c(N)ncnc54)[C@H](O)[C@@H]3O)c2cc1C` [FAD], the “UV/Vis spectra (FAD saturation of purified protein)” value was “Spectrophotometric analysis of the purified WT, p.Ser495del, and p.Arg530Cys FADS2 proteins”.

The values are drawn from publication PMC4908180 (American Journal of Human Genetics, 2016).
